# Reference: BindingDB's records for doi:10.1021/jm00115a012 (Research Biochemicals, 1991)
# Assays:
# [1] = biological target: D(1A) dopamine receptor; test: Binding affinity against dopamine receptor D1 by using [3H]-SCH- 23390 as radioligand in caudate-putamen of monkey
# [2] = biological target: T1, D(2) dopamine receptor (Homo sapiens, UniProt P14416); test: (§1) Binding affinity against dopamine receptor D2 by using [3H]spiperone as radioligand in caudate-putamen of monkey
# [3] = biological target: T1, D(2) dopamine receptor; test: ChEBML_59152; source text: as §1
# T1 sequence (P14416 whole entry): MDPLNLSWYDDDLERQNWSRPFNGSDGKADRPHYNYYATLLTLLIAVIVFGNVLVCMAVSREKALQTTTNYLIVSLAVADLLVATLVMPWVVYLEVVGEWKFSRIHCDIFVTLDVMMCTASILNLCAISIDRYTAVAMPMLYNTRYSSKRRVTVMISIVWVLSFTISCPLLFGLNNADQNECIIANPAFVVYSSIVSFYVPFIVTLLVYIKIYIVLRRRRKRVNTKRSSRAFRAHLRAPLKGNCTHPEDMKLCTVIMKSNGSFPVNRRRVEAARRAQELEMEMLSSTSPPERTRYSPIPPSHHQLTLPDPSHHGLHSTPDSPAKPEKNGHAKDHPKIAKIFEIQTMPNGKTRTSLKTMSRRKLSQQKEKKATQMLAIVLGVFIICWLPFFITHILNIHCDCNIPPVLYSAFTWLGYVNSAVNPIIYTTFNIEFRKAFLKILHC
SMILES,Ki [1] [nM],Ki [2] [nM],Ki [3] [nM]
CCCN(CCc1ccc(NC(=S)Nc2ccc3c(c2)C(=O)OC32c3ccc(O)cc3Oc3cc(O)ccc32)cc1)[C@@H]1CCc2c(O)cccc2C1,–,110,–
O=C(CCCN1CCC2(CC1)C(=O)N(CCc1ccc(Nc3ccc([N+](=O)[O-])c4n[o+][n-]c34)cc1)CN2c1ccccc1)c1ccc(F)cc1,–,–,0.66
O=C1OC2(c3ccc(O)cc3Oc3cc(O)ccc32)c2ccc(NC(=S)Nc3ccc(C4CNCCc5cc(O)c(O)cc54)cc3)cc21 (stereo not given),10000,–,–
CN1CCc2cc(Br)c(O)cc2C(c2ccc(NC(=S)Nc3ccc4c(c3)C(=O)OC43c4ccc(O)cc4Oc4cc(O)ccc43)cc2)C1 (stereo not given),–,–,> 5000
CN1CCc2cc(Br)c(O)cc2C(c2ccc(N)cc2)C1 (stereo not given),–,–,1600
CN1CCc2cc(Br)c(O)cc2C(c2ccc(Nc3ccc([N+](=O)[O-])c4n[o+][n-]c34)cc2)C1 (stereo not given),–,–,710
CCCN(CCc1ccc(NC(=S)Nc2ccc3c(c2)C(=O)OC32c3ccc(O)cc3Oc3cc(O)ccc32)cc1)C1CCc2c(O)cccc2C1 (racemic),–,–,7
CCCN(CCc1ccc(NC(=S)Nc2ccc3c(c2)C(=O)OC32c3ccc(O)cc3Oc3cc(O)ccc32)cc1)[C@H]1CCc2c(O)cccc2C1,–,–,4.8

# Next, values leading:
Ki [1] [nM],Ki [2] [nM],Ki [3] [nM],SMILES
4900,170,–,CCCN(CCc1ccc(C)cc1)[C@@H]1CCc2c(O)cccc2C1
270,6.7,–,CCCN(CCc1ccc(C)cc1)[C@H]1CCc2c(O)cccc2C1
–,0.45,–,CCCN(CCc1ccc(Nc2ccc([N+](=O)[O-])c3n[o+][n-]c23)cc1)C1CCc2c(O)cccc2C1 (stereo not given)
710,6.8,–,CCCN(CCc1ccc(N)cc1)C1CCc2c(O)cccc2C1 (racemic)
